Tests used:
Test in all cases: relative viability (nuclei count vs DMSO), 5 days (fraction); higher = more cells survive
[1] = compound: C1/C(=C\C2=CC=CS2)/C(=O)/C(=C/C3=CC=CS3)/C1 + CCNC(=O)c1noc(-c2cc(C(C)C)c(O)cc2O)c1-c1ccc(CN2CCOCC2)cc1 [Luminespib] (partner 0.01 µM)
In short: (§1)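 Relative viability is defined as nuclei in treated wells over nuclei in vehicle wells. Duplicate plates were run and medians reported. Lung cancer cell lines in 1536-well plates were dosed by pin tool one day after seeding, with one drug or with a fixed anchor-drug dose plus five library-drug doses (not always all listed) in √10 steps, and nuclei were counted after 5 days.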

[2] = compound: C1/C(=C\C2=CC=CS2)/C(=O)/C(=C/C3=CC=CS3)/C1 + C[C@@H](Oc1cc(-c2cnn(C3CCNCC3)c2)cnc1N)c1c(Cl)ccc(F)c1Cl [Crizotinib] (partner 1 µM)
In short: as §1

[3] = compound: C1/C(=C\C2=CC=CS2)/C(=O)/C(=C/C3=CC=CS3)/C1 + NC(=O)Nc1cc(-c2cccc(F)c2)sc1C(=O)N[C@H]1CCCNC1 [AZD7762] (partner 0.2 µM)
In short: as §1

[4] = compound: C1=CC(=CC=C1C2=CC(=C(S2)NC(=O)N)C(=O)N)F [TPCA-1] + CS(=O)(=O)CCNCc1ccc(-c2ccc3ncnc(Nc4ccc(OCc5cccc(F)c5)c(Cl)c4)c3c2)o1 [Lapatinib] (partner 2 µM)
In short: as §1

Cell Line	relative viability ([1]; first compound 0.2 µM)	relative viability ([1]; first compound 0.6325 µM)	relative viability ([1]; first compound 2 µM)	relative viability ([1]; first compound 6.325 µM)	relative viability ([1]; first compound 20 µM)	relative viability ([2]; first compound 0.2 µM)	relative viability ([2]; first compound 0.6325 µM)	relative viability ([2]; first compound 2 µM)	relative viability ([2]; first compound 6.325 µM)	relative viability ([2]; first compound 20 µM)	relative viability ([3]; first compound 0.2 µM)	relative viability ([3]; first compound 0.6325 µM)	relative viability ([3]; first compound 2 µM)	relative viability ([3]; first compound 6.325 µM)	relative viability ([3]; first compound 20 µM)	relative viability ([4]; first compound 0.04 µM)	relative viability ([4]; first compound 0.1265 µM)	relative viability ([4]; first compound 0.4 µM)	relative viability ([4]; first compound 1.265 µM)	relative viability ([4]; first compound 4 µM)
NCI-H1355	0.71	0.7	0.733	0.687	0.662	1.19	1.05	1.03	0.943	1.08	0.69	0.835	0.804	0.559	0.622	1.15	0.879	0.956	0.818	0.719
EKVX	0.914	0.83	0.904	0.678	0.842	1.01	0.982	0.922	0.929	0.926	0.631	0.685	0.764	–	0.695	0.217	0.184	0.241	0.198	0.205
NCI-H441	0.331	0.377	0.343	0.37	0.345	0.967	0.786	1.06	0.729	0.604	1.35	1.22	1.29	1.01	1.13	–	–	–	–	–
NCI-H1975	0.313	0.163	0.194	0.312	0.177	0.988	0.957	1.02	0.718	0.971	0.826	0.801	0.656	0.618	0.763	0.941	0.75	0.906	0.714	0.494
HCC-78	–	–	–	–	–	0.334	0.35	0.354	0.313	0.327	0.649	0.729	0.76	0.68	0.658	0.628	0.35	0.718	0.672	0.0936
NCI-H2085	0.446	0.433	0.453	0.41	0.503	0.789	0.935	0.83	0.856	0.952	1.03	1.05	0.926	0.932	0.932	0.825	0.732	0.889	0.7	0.646
H3255	1.21	0.855	0.954	0.871	0.907	0.847	1.06	0.793	0.8	0.845	0.916	0.878	0.945	0.842	0.914	0.261	0.24	0.236	0.219	0.162
NCI-H2087	0.215	0.161	0.177	0.133	0.158	0.867	0.901	0.746	0.735	0.993	1.46	1.29	1.18	1.17	1.25	1.08	0.914	0.905	0.798	0.247
LC-2-ad	1.2	1.14	1.12	1.04	0.961	0.488	0.503	0.454	0.368	0.484	0.871	0.899	0.871	0.72	0.825	0.986	0.933	1.02	0.953	0.186
EBC-1	–	–	–	–	–	0.204	0.213	0.191	0.189	0.22	–	–	–	–	–	0.201	0.233	0.196	0.224	0.248
NCI-H1563	0.567	0.511	0.552	0.534	0.492	0.843	0.887	0.899	0.832	0.987	–	–	–	–	–	1.08	0.943	0.919	0.736	0.795
COR-L 105	0.97	0.502	0.808	–	0.586	0.861	1.03	0.885	0.695	0.646	–	–	–	–	–	0.379	0.368	0.384	0.272	0.268
NCI-H520	0.231	0.218	0.212	0.209	0.242	0.882	0.966	0.715	0.655	0.751	–	–	–	–	–	0.905	0.752	0.879	0.756	0.168
NCI-H522	1.13	0.991	1.32	1.12	1.07	–	–	–	–	–	0.936	0.809	0.822	0.9	0.94	–	–	–	–	–
NCI-H1299	–	–	–	–	–	0.958	0.976	0.928	0.903	0.589	–	–	–	–	–	0.962	0.979	0.95	0.963	0.949
NCI-H1395	0.743	0.701	0.704	0.738	0.663	–	–	–	–	–	0.36	0.356	0.405	0.411	0.414	1.09	1.06	1.02	0.935	0.75
NCI-H2009	1.05	1.05	0.941	0.741	1.03	1.11	1.09	1.02	0.971	1.06	–	–	–	–	–	1.12	0.886	0.926	0.444	0.294
Calu-6	–	–	–	–	–	0.845	0.873	0.846	0.764	0.772	–	–	–	–	–	1.15	1.04	1.01	0.956	0.91
NCI-H1703	–	–	–	–	–	0.94	1.12	0.919	0.585	0.737	0.121	0.176	0.148	0.119	0.128	1.07	0.902	1.18	0.805	0.988

Cell Line	relative viability ([1]; first compound 0.2 µM)	relative viability ([1]; first compound 0.6325 µM)	relative viability ([1]; first compound 2 µM)	relative viability ([1]; first compound 6.325 µM)	relative viability ([1]; first compound 20 µM)	relative viability ([2]; first compound 0.2 µM)	relative viability ([2]; first compound 0.6325 µM)	relative viability ([2]; first compound 2 µM)	relative viability ([2]; first compound 6.325 µM)	relative viability ([2]; first compound 20 µM)	relative viability ([3]; first compound 0.2 µM)	relative viability ([3]; first compound 0.6325 µM)	relative viability ([3]; first compound 2 µM)	relative viability ([3]; first compound 6.325 µM)	relative viability ([3]; first compound 20 µM)	relative viability ([4]; first compound 0.04 µM)	relative viability ([4]; first compound 0.1265 µM)	relative viability ([4]; first compound 0.4 µM)	relative viability ([4]; first compound 1.265 µM)	relative viability ([4]; first compound 4 µM)
NCI-H1650	0.176	0.194	0.205	0.218	0.185	1.16	1.02	1.14	0.605	0.923	–	–	–	–	–	0.945	0.713	0.921	0.791	0.219
NCI-H2342	0.761	0.654	0.767	0.615	0.8	–	–	–	–	–	0.484	0.537	0.718	0.483	0.363	–	–	–	–	–
COR-L23	0.583	0.692	0.577	0.721	0.544	0.536	0.69	0.639	0.592	0.633	–	–	–	–	–	1.09	0.859	0.903	1.09	0.678
ChaGo-K-1	0.62	0.652	0.45	0.295	0.22	1.16	1.23	1.08	1.05	0.76	0.91	0.9	0.873	0.581	0.51	–	–	–	–	–
NCI-H1623	0.672	0.601	0.528	0.372	0.511	–	–	–	–	–	–	–	–	–	–	–	–	–	–	–
NCI-H2228	0.158	0.167	0.179	0.133	0.134	0.669	0.528	0.515	0.374	0.441	–	–	–	–	–	1.54	0.867	1.32	0.853	0.537
NCI-H661	0.942	0.964	0.934	0.843	0.929	1.02	0.986	0.948	0.947	1.02	–	–	–	–	–	0.632	0.448	0.562	0.522	0.387
HCC-366	–	–	–	–	–	0.421	0.651	0.525	0.451	0.513	0.297	0.347	0.215	0.241	0.145	1.06	1.01	1.02	1.02	0.217
SK-LU-1	0.204	0.191	0.202	0.181	0.214	1.12	1.03	0.925	0.763	0.923	–	–	–	–	–	0.799	0.841	0.888	0.698	0.569
SW 1573	0.25	0.192	0.194	0.161	0.181	0.778	0.693	0.889	0.749	0.895	–	–	–	–	–	0.829	1.04	1.17	1.18	1.19
SW 900	0.16	0.173	0.181	0.175	0.156	–	–	–	–	–	0.74	0.665	0.628	0.495	0.602	–	–	–	–	–
NCI-H1648	–	–	–	–	–	–	–	–	–	–	0.778	0.622	0.571	0.601	0.511	–	–	–	–	–
NCI-H2023	0.864	0.642	0.735	0.515	0.677	0.685	0.602	0.762	0.652	0.684	–	–	–	–	–	1.1	0.78	1.14	0.528	0.133
SK-MES-1	0.868	0.646	0.839	0.545	0.773	0.978	1.04	0.903	0.879	0.917	–	–	–	–	–	0.479	0.402	0.429	0.471	0.34
NCI-H1793	0.229	0.178	0.189	0.153	0.179	–	–	–	–	–	0.488	0.482	0.596	0.328	0.199	1.05	0.669	0.837	0.929	0.354
IA-LM	–	–	–	–	–	1.19	0.721	0.651	0.747	1	–	–	–	–	–	0.64	0.804	0.87	0.626	0.896
A549	–	–	–	–	–	0.825	0.813	0.823	0.767	0.738	–	–	–	–	–	1.03	0.922	1.1	0.959	0.969
LCLC-103H	1.05	0.901	1.07	0.936	0.989	1.09	1.03	1.08	0.906	1.03	0.772	0.742	0.9	0.613	0.783	–	–	–	–	–
